What follows are compounds tested against T1, human TRPV4 (Homo sapiens, UniProt Q9HBA0) (assay: FLIPR assay for hTRPV4 expressed in BHK cells: inhibition of Agonist Compound-induced calcium signal). Conditions: hTRPV4 in BHK/AC9 cells, FLIPR calcium signal, agonist at EC80; reported as range class; read-out: IC50.
T1 construct: expressed in transfected cells; host or cells: BHK/AC9 cells transduced with BacMam virus
T1 sequence (Q9HBA0 whole entry): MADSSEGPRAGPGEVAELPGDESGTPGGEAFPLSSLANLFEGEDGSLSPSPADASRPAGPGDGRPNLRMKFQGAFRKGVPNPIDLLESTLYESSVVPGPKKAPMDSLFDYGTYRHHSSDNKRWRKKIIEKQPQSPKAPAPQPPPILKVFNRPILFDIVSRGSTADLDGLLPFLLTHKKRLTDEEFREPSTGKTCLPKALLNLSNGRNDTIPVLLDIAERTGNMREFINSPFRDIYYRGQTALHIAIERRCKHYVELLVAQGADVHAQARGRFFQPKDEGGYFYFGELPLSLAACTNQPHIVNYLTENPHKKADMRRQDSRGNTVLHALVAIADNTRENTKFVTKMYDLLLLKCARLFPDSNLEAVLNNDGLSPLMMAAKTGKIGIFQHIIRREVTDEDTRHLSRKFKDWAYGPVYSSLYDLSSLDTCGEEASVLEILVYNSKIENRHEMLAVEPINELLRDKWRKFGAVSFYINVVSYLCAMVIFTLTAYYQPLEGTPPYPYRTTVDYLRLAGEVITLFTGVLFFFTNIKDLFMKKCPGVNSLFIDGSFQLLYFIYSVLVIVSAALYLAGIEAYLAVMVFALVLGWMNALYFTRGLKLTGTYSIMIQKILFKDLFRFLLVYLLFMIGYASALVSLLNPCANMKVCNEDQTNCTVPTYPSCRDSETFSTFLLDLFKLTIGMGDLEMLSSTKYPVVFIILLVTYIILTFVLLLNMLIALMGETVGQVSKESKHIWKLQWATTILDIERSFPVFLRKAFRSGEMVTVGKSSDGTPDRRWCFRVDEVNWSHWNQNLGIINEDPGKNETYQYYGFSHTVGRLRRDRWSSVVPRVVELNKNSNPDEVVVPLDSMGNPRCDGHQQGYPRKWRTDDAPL
Type: cell-based
Protocol: FLIPR Assay for hTRPV4 Expressed in BHK Cells:
TRPV4 channel activation results in an influx of divalent and monovalent cations including calcium. The resulting changes in intracellular calcium were monitored using a calcium specific fluorescent dye Fluo-4 (MDS Analytical Technologies). BHK/AC9 cells transduced with BacMam virus expressing the human TRPV4 gene at a MOI of 78 were plated in a 384 well poly-D lysine coated plate (15,000 cells/well in 50 μL culture medium containing DMEM/F12 with 15 mM HEPES, 10% FBS, 1% Penicillin-Streptomycin and 1% L-glutamine). Cells were incubated for 24 hours at 37° C. and 5% CO2. Culture medium was then aspirated using a Tecan plate-washer and replaced with 20 μL/well of dye loading buffer: HBSS, 500 μM Brilliant Black (MDS Analytical Technologies), and 2 μM Fluo-4 AM. Dye loaded plates were then incubated in the dark at room temperature for 1-1.5 hours.
With N#Cc1cc(Cl)ccc1S(=O)(=O)N1C[C@H](Oc2ccc(F)c(F)c2F)[C@](O)(CO)C1 [Example 23, 5-chloro-2-(((3R,4S)-3-hydroxy-3-(hydroxymethyl)-4-(2,3,4-trifluorophenoxy)pyrrolidin-1-yl)sulfonyl)benzonitrile] the IC50 was 0.1 to 10 nM.
In the case of N#Cc1cc(Cl)ccc1S(=O)(=O)N1C[C@H](Oc2cc(F)c(F)cc2F)[C@](O)(CO)C1 [Example 24, 5-chloro-2-(((3R,4S)-3-hydroxy-3-(hydroxymethyl)-4-(2,4,5-trifluorophenoxy)pyrrolidin-1-yl)sulfonyl)benzonitrile], the IC50 is reported as 0.1 to 10 nM.
For N#Cc1cc(C(F)(F)F)ccc1S(=O)(=O)N1C[C@H](Oc2ccc(F)c(F)c2)[C@](O)(CO)C1 [Example 25, 2-(((3R,4S)-4-(3,4-difluorophenoxy)-3-hydroxy-3-(hydroxymethyl)pyrrolidin-1-yl)sulfonyl)-5-(trifluoromethyl)benzonitrile], the IC50 was 0.1 to 10 nM.
Compound N#Cc1cc(C(F)(F)F)ccc1S(=O)(=O)N1C[C@H](Oc2cc(F)c(F)c(F)c2)[C@](O)(CO)C1 [Example 26, 2-(((3R,4S)-3-hydroxy-3-(hydroxymethyl)-4-(3,4,5-trifluorophenoxy)pyrrolidin-1-yl)sulfonyl)-5-(trifluoromethyl)benzonitrile] has an IC50 of 10 to 100 nM.
N#Cc1cc(C(F)(F)F)ccc1S(=O)(=O)N1C[C@H](Oc2cc(F)c(F)cc2F)[C@](O)(CO)C1 [Example 27, 2-(((3R,4S)-3-hydroxy-3-(hydroxymethyl)-4-(2,4,5-trifluorophenoxy)pyrrolidin-1-yl)sulfonyl)-5-(trifluoromethyl)benzonitrile] was tested, and the IC50 was 0.1 to 10 nM.
N#Cc1cc(C(F)(F)F)ccc1S(=O)(=O)N1C[C@H](Oc2ccc(F)c(F)c2F)[C@](O)(CO)C1 [Example 28, 2-(((3R,4S)-3-hydroxy-3-(hydroxymethyl)-4-(2,3,4-trifluorophenoxy)pyrrolidin-1-yl)sulfonyl)-5-(trifluoromethyl)benzonitrile] was tested, and the IC50 was 10 to 100 nM.
In the case of N#Cc1ccc(O[C@H]2CN(S(=O)(=O)c3ccc(C(F)(F)F)cc3C#N)C[C@@]2(O)CO)cc1 [Example 29, 2-(((3R,4S)-4-(4-cyanophenoxy)-3-hydroxy-3-(hydroxymethyl)pyrrolidin-1-yl)sulfonyl)-5-(trifluoromethyl)benzonitrile], the IC50 is reported as 0.1 to 10 nM.
With N#Cc1cc(C(F)(F)F)ccc1S(=O)(=O)N1C[C@H](Oc2ccc(Cl)c(F)c2)[C@](O)(CO)C1 [Example 30, 2-(((3R,4S)-4-(4-chloro-3-fluorophenoxy)-3-hydroxy-3-(hydroxymethyl)pyrrolidin-1-yl)sulfonyl)-5-(trifluoromethyl)benzonitrile] the IC50 was 0.1 to 10 nM.
For N#Cc1cc(C(F)(F)F)ccc1S(=O)(=O)N1C[C@H](Oc2ccc(C(F)(F)F)c(F)c2)[C@](O)(CO)C1 [Example 31, 2-(((3R,4S)-4-(3-fluoro-4-(trifluoromethyl)phenoxy)-3-hydroxy-3-(hydroxymethyl)pyrrolidin-1-yl)sulfonyl)-5-(trifluoromethyl)benzonitrile], the IC50 was 0.1 to 10 nM.
With N#CCc1ccc(O[C@H]2CN(S(=O)(=O)c3ccc(C(F)(F)F)cc3C#N)C[C@@]2(O)CO)cc1 [Example 32, 2-(((3R,4S)-4-(4-(cyanomethyl)phenoxy)-3-hydroxy-3-(hydroxymethyl)pyrrolidin-1-yl)sulfonyl)-5-(trifluoromethyl)benzonitrile] the IC50 was 10 to 100 nM.
N#CCc1cccc(O[C@H]2CN(S(=O)(=O)c3ccc(C(F)(F)F)cc3C#N)C[C@@]2(O)CO)c1 [Example 33, 2-(((3R,4S)-4-(3-(cyanomethyl)phenoxy)-3-hydroxy-3-(hydroxymethyl)pyrrolidin-1-yl)sulfonyl)-5-(trifluoromethyl)benzonitrile] was tested, and the IC50 was 10 to 100 nM.
For COC(=O)c1cc(C#N)ccc1O[C@H]1CN(S(=O)(=O)c2ccc(C(F)(F)F)cc2C#N)C[C@@]1(O)CO [Example 34, methyl 5-cyano-2-(((3S,4R)-1-((2-cyano-4-(trifluoromethyl)phenyl)sulfonyl)-4-hydroxy-4-(hydroxymethyl)pyrrolidin-3-yl)oxy)benzoate], the IC50 was 0.1 to 10 nM.
O=S(=O)(c1ccc(Cl)cc1Cl)N1C[C@H](Oc2ccc(C(F)(F)F)nc2)[C@](O)(CO)C1 [Example 35, (3R,4S)-1-((2,4-dichlorophenyl)sulfonyl)-3-(hydroxymethyl)-4-((6-(trifluoromethyl)pyridin-3-yl)oxy)pyrrolidin-3-ol] gave an IC50 of 10 to 100 nM.
N#Cc1ncc(O[C@H]2CN(S(=O)(=O)c3ccc(Cl)cc3Cl)C[C@@]2(O)CO)cc1F [Example 36, 5-(((3S,4R)-1-((2,4-dichlorophenyl)sulfonyl)-4-hydroxy-4-(hydroxymethyl)pyrrolidin-3-yl)oxy)-3-fluoropicolinonitrile] showed an IC50 of 0.1 to 10 nM.
N#Cc1cc(C(F)(F)F)ccc1S(=O)(=O)N1C[C@H](Oc2ccc(C(F)(F)F)cc2)[C@](O)(CO)C1 [Example 37, 2-(((3R,4S)-3-hydroxy-3-(hydroxymethyl)-4-(4-(trifluoromethyl)phenoxy)pyrrolidin-1-yl)sulfonyl)-5-(trifluoromethyl)benzonitrile] was tested, and the IC50 was 0.1 to 10 nM.
N#Cc1cc(C(F)(F)F)ccc1S(=O)(=O)N1C[C@H](Oc2ccc(F)c(C(F)(F)F)c2)[C@](O)(CO)C1 [Example 38, 2-(((3R,4S)-4-(4-fluoro-3-(trifluoromethyl)phenoxy)-3-hydroxy-3-(hydroxymethyl)pyrrolidin-1-yl)sulfonyl)-5-(trifluoromethyl)benzonitrile] was tested, and the IC50 was 10 to 100 nM.
With N#Cc1cc(C(F)(F)F)ccc1S(=O)(=O)N1C[C@H](Oc2ccc(Cl)c(Cl)c2)[C@](O)(CO)C1 [Example 39, 2-(((3R,4S)-4-(3,4-dichlorophenoxy)-3-hydroxy-3-(hydroxymethyl)pyrrolidin-1-yl)sulfonyl)-5-(trifluoromethyl)benzonitrile] the IC50 was 10 to 100 nM.
Work on N#Cc1cc(C(F)(F)F)ccc1S(=O)(=O)N1C[C@H](Oc2ccc(OC(F)(F)F)c(F)c2)[C@](O)(CO)C1 [Example 40, 2-(((3R,4S)-4-(3-fluoro-4-(trifluoromethoxy)phenoxy)-3-hydroxy-3-(hydroxymethyl)pyrrolidin-1-yl)sulfonyl)-5-(trifluoromethyl)benzonitrile] yielded an IC50 of 0.1 to 10 nM.
For N#Cc1cc(C(F)(F)F)ccc1S(=O)(=O)N1C[C@H](Oc2ccc(F)c(Cl)c2)[C@](O)(CO)C1 [Example 41, 2-(((3R,4S)-4-(3-chloro-4-fluorophenoxy)-3-hydroxy-3-(hydroxymethyl)pyrrolidin-1-yl)sulfonyl)-5-(trifluoromethyl)benzonitrile], the IC50 was 10 to 100 nM.
N#Cc1cc(C(F)(F)F)ccc1S(=O)(=O)N1C[C@H](Oc2ccc(C(F)(F)F)nc2)[C@](O)(CO)C1 [Example 42, 2-(((3R,4S)-3-hydroxy-3-(hydroxymethyl)-4-((6-(trifluoromethyl)pyridin-3-yl)oxy)pyrrolidin-1-yl)sulfonyl)-5-(trifluoromethyl)benzonitrile] showed an IC50 of 10 to 100 nM.
Compound COc1ccc(O[C@H]2CN(S(=O)(=O)c3ccc(C(F)(F)F)cc3C#N)C[C@@]2(O)CO)cc1F [Example 43, 2-(((3R,4S)-4-(3-fluoro-4-methoxyphenoxy)-3-hydroxy-3-(hydroxymethyl)pyrrolidin-1-yl)sulfonyl)-5-(trifluoromethyl)benzonitrile] has an IC50 of 10 to 100 nM.
CC(C)Oc1cc(C#N)ccc1O[C@H]1CN(S(=O)(=O)c2ccc(C(F)(F)F)cc2C#N)C[C@@]1(O)CO [Example 44, 2-(((3R,4S)-4-(4-cyano-2-isopropoxy-phenoxy)-3-hydroxy-3-(hydroxymethyl)pyrrolidin-1-yl)sulfonyl)-5-(trifluoromethyl)benzonitrile] gave an IC50 of 0.1 to 10 nM.

— patent US11229623B2 (GlaxoSmithKline Intellectual Property (No.2) Limited, priority 2016, dated 2022)
